Measurements taken from patent US7531195B2, “Schisandrin B preparation” (priority 2005, dated 2009).
Marks after values point to notes of the source that are not given here.

Assays:
[1] = tested on: H9c2 cells; assay: Cellular GSH level in H9c2 cells with or without menadione challenge; format: cell-based, rat
Experimental: H9c2 cells, a permanent cell line derived from cardiac myoblasts of rat embryo, have early been characterized as a suitable model of myocardial cells [Hescheler et al. 1991]. H9c2 cells were cultured as monolayers in Dulbecco's modified Eagle's medium (GIBCO BRL) supplemented with 10% (v/v) fetal bovine serum. The medium contained glucose (4.5 g/L) and glutamine (4.5 mM), supplemented with NaHCO3 (17 mM), penicillin (100 IU/ml), and streptomycin (100 μg/ml). Cells were grown under an atmosphere of 5% CO2 in air at 37° C. The medium was replaced by fresh medium every 2 or 3 days. A stock of cells was grown in a 75 cm culture flask and split before confluence at a subcultivation ratio of 1:10. Cells used for experiments were seeded at a density of 3.75×10^4 cells/well on a 12-well culture plate, and the cells were grown for 24 h to about 80% confluence prior to drug treatment.
Cultured H9c2 cells were treated with (−) Schisandrin B, (+) Schisandrin B or (±) Schisandrin B (dissolved in DMSO) at 6.25 μM (0.2% DMSO final concentration) for 16 h. Control cells were given the vehicle (i.e. DMSO) only. Immediately following the drug or vehicle pretreatment, the cells were challenged with menadione (dissolved in ethanol) at 12.5 μM (0.2% ethanol final concentration) for 4 h. The control cells were treated with the medium containing 0.2% ethanol only. After the menadione challenge, the medium was taken for the measurement of LDH activity, an biochemical index of cell injury.
The cells were washed twice with 0.5 ml cold phosphate-buffered saline (PBS), An aliquot (200 μl) of 3% sulfonsalicyclic acid was then added, and the mixture was incubate at 4° C. for 10 min. After centrifuging at 300 g for 15 min at 4° C., the supernatant was used for GSH measurement by an enzymatic method of Griffith (1980).

[2] = tested on: Isolated-Perfused Rat Heart; assay: Myocardial ischemia-reperfusion injury (LDH leakage), isolated-perfused heart of young rats; format: in vivo; details: 35 days
Experimental: Male/Female adult Sprague-Dawley rats (˜10 weeks old) were maintained under a 12-h dark/light cycle at about 22° C. and allowed food and water ad libitum. Animals were randomly divided into groups, with at least 5 animals in each. In the pretreatment groups, rats were treated intragastrically with (−) Schisandrin B at a daily dose of 1 or 10 mg/kg for 35 days. Control animals received oil only (10 ml/kg). Twenty-four hours following the last dosing, hearts were isolated from control or drug-pretreated rats and then subjected to Langendorff perfusion as described below.
The heart was excised quickly and immediately immersed in ice-cold and heparinized (50 unit/ml) saline. The aorta was cannulated and then transferred to a warm and moistured chamber of the perfusion apparatus. The heart was retrogradely perfused according to Langendorff method as described (Yim and Ko 1999).
Coronary effluent was collected in 1-min fractions at increasing time intervals during the course of equilibration and reperfusion. The fractions were immediately put on ice until assay for lactate dehydrogenase (LDH) activity. The extent of LDH leakage during the reperfusion period, an indirect index of myocardial injury, was estimated by computing the area under the curve of the graph plotting the percent LDH activity (with respect to the mean pre-ischemic value measured during the equilibration period) against the reperfusion time (1-20 min), as described (Yim and Ko 1999). Immediately after the I-R procedure, heart ventricular tissue samples were obtained for biochemical analysis.

[3] = tested on: Hsp70; assay: Tissue Hsp70 level in young female rats (Western blot); format: in vivo, rat; details: 10 mg/kg daily, 15 days
Experimental: Female Sprague-Dawley rats (8 weeks old) were maintained under a 12-h dark/light cycle at about 22° C. and allowed food and water ad libitum. Drug treated animals received a daily bolus dose of (−) Schisandrin B, α-lipoic acid (α-LA) or α-tocopherol (α-Toc) at 10, 5 and 70 mg/kg, respectively, for 15 days. The dosages were determined with reference to the equivalent amount of crude herb prescribed for human or the daily recommended intake in health supplements. The control animals received olive oil only. Twenty-four hours after the last dose, the pentobarbital-anesthetized animals were sacrificed by cardiac excision, and brain. heart, liver and skeletal muscle tissues were obtained.
Hsp25 and Hsp70 levels was estimated by Western blot analysis using specific antibodies (anti-Hsp25, catalog #SPA-801; anti-Hsp70, catalog #SPA-812) from StressGen (Vancouver, BC, Canada) following SDS-PAGE analysis of the nuclear-free tissue homogenates, using a separating gel of 10% acrylamide as described in Ip et. al. (2001). Hsp25/27 and Hsp70 (human recombinant proteins from StressGen) and actin (bovine muscle from Sigma) were used as markers for reference. […] All immuno-blots were analyzed by densitometry, and the amounts (arbitrary units) of Hsp were normalized with reference to actin levels (arbitrary units) in the sample.

[4] = MENADIONE 12.5 μM for 4 h, drug 6.25 μM for 16 h
[5] = NON-MENADIONE, 6.25 μM for 16 h

## COc1cc2c(c(OC)c1OC)-c1c(cc3c(c1OC)OCO3)CC(C)C(C)C2 (single isomer, unassigned; (-)) [(−) Sch B, (−) Schisandrin B]
[1]; [4]
  GSH Level: 33.3 ± 1.75 nmol/mg protein
  GSH Level, percent increase vs menadione control: (81%)
[1]; [5]
  GSH Level: 64.0 ± 2.96 nmol/mg protein
  GSH Level, percent increase vs non-menadione control: (84%)
[2]; I-R, female, 1 mg/kg daily
  LDH Leakage: 2861 ± 70.6^b AU
  LDH Leakage, percent protection vs unpretreated control: (31%)
[2]; I-R, female, 10 mg/kg daily
  LDH Leakage: 2023 ± 83.1^b AU
  LDH Leakage, percent protection vs unpretreated control: (60%)
[2]; I-R, male, 1 mg/kg daily
  LDH Leakage: 3638 ± 125^a AU
  LDH Leakage, percent protection vs unpretreated control: (37%)
[2]; I-R, male, 10 mg/kg daily
  LDH Leakage: 2775 ± 55.8^a AU
  LDH Leakage, percent protection vs unpretreated control: (57%)
[2]; NON-I-R, female, 1 mg/kg daily
  LDH Leakage: 776 ± 22.1 AU
[2]; NON-I-R, female, 10 mg/kg daily
  LDH Leakage: 813 ± 14.0 AU
[2]; NON-I-R, male, 1 mg/kg daily
  LDH Leakage: 804 ± 18.0 AU
[2]; NON-I-R, male, 10 mg/kg daily
  LDH Leakage: 820 ± 13.8 AU
[3]; BRAIN
  Heat Shock Protein Level, Hsp70: 0.49 ± 0.05 AU
  Hsp70 level, percent increase vs untreated control: (77%)
[3]; HEART
  Heat Shock Protein Level, Hsp70: 0.71 ± 0.03 AU
  Hsp70 level, percent increase vs untreated control: (17%)
[3]; LIVER
  Heat Shock Protein Level, Hsp70: 0.69 ± 0.001 AU
  Hsp70 level, percent increase vs untreated control: (45%)
[3]; SKELETAL MUSCLE
  Heat Shock Protein Level, Hsp70: 0.69 ± 0.07 AU
  Hsp70 level, percent increase vs untreated control: (57%)
